Laboratory results from patent publication US5677331A, “Antimalarial compositions” (priority 1990, dated 1997).

What was measured:
[1] = tested on: chloroquine-resistant strains of Plasmodium falciparum; conditions: in vivo; cited from earlier work
P. Berghei K173 N-strain = experiment: blood schizontocidal action, 4-day test according to Peters; type: in vivo, P. Berghei in mice; conditions: component alone, oral, mice, mean of three experiments
Method: The synergism between the components benflumetol and artemether is determined according to the method of Peters: Am. Trop. Med. Parasitol Vol. 62, pg. 488-492 (1968).
Blood schizintocidal action of artemether (A) and benflumetol (B) admimistered orally in varying proportions to mice infected with P. Berghei K173 N-strain in "4-day test" according to Peters (Mean values of three experiments)

protozoa = experiment: rate of killing protozoa in vivo in mice; conditions: 20× ED90 intragastrically
Method: The rate of killing protozoa was determined in-vivo. When the protozoa concentration in the blood of mice increased to high density, a multiple dose equivalent, i.e. 20× ED90 was given intragastrically. The rate of decrease of protozoae in blood was observed uninterruptedly after administration.

[2] = tested on: pernicious malaria protozoae; experiment: clinical therapeutic effect of individual components compared to combination; type: in vivo, patients (human); conditions: oral, 3 days and 4 doses; for time for disappearance of protozoae: average; for rate of decrease in protozoae at 24 hours: 20 patients per group
Source text: Determination of therapeutic effect of individual components as compared to synergistic combination: Two groups of patients were selected for oral administration and the 3 days and 4 doses treatment scheme. There were 20 patients with pernicious malaria in each group. The therapeutic effect of the combination and artemether and benflumetol singly were compared separately. The doses of both drugs in individual administration were about the same as in the complex prescription. The parameters determined were: 1) the rate for decrease of protozoa at 24 h post administrationem; 2) average time for disappearance of protozoae; 3) average time for fever subsidence; and 4) cure rate at the 28th day.

[3] = toxicity and tolerability of benflumetol (general statement)
Source text: The dose of the active component benflumetol (I) as contained in the pharmaceutical composition may vary within wide limits and depends on the condition of the patient and the time period elapsed after the outbreak of the disease.

Row | Compound | activity against chloroquine-resistant strains of Plasmodium falciparum in man [1] | Effective dose of first component ED50 (P. Berghei K173 N-strain) [mg/kg/day] | Effective dose of first component ED90 (P. Berghei K173 N-strain) [mg/kg/day] | killing of protozoae (protozoa; before their number increased again) | time for disappearance of protozoae [2] [h] | 28-day cure rate [2] [%] | average time for fever subsidence [2] [h] | rate of decrease in protozoae at 24 hours [2] [%] | timespan required for 90% decrease of the protozoae (protozoa) [h] | tolerability [3] | toxicity [3]
1 | C[C@@H]1CC[C@H]2[C@@H](C)C(=O)O[C@@H]3O[C@@]4(C)CC[C@@H]1[C@]32OO4 [Artemisinine] | active against chloroquine-resistant strains of Plasmodium falciparum in man |  |  |  |  |  |  |  |  |  | 
2 | CO[C@H]1O[C@@H]2O[C@@]3(C)CC[C@H]4[C@H](C)CC[C@@H]([C@H]1C)[C@@]24OO3 [artemether] |  | 2.00 | 5.30 | could not kill protozoae by more than 90% before their number increased again | 38.7 | 45 | 19.7 | 95.1 |  |  | 
3 | CCCCN(CCCC)CC(O)c1cc(Cl)cc2c1-c1ccc(Cl)cc1C2=Cc1ccc(Cl)cc1 (centres unmarked) [benflumetol] |  | 1.30 | 2.70 |  | 68.4 | 65 | 40 | 74.5 | 64.3 | high tolerability | low toxicity
